A word on the IC50: it is the point on the concentration scale where inhibition reaches its midpoint. A low value points to inhibition by little substance.

The source of these data is patent US20250066389A1, “HETEROCYCLIC AMIDES AND METHODS OF USING THE SAME” (Rgenta Therapeutics, Inc., priority 2021, published 2025).

The assay relates to PMS1. The experiment in a line: Mini-Gene Reporter Assay—PMS1 (firefly luciferase mini-gene reporter transiently transfected into HEK293 cells). Type of assay: cell-based. Conditions: Homo sapiens, mini-gene firefly luciferase reporter in HEK293 cells; for activation at 5 µM: read-out: PMS1 % Effect at 5 uM. Put shortly: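 HEK293 cells transiently transfected with a mini-gene construct (skipped exon with flanking introns/exons fused to firefly luciferase, pcDNA3.1) are incubated with compounds in duplicate. Exon inclusion raises luminescence; EC50 fitted by Levenberg-Marquardt; effect also scored at 5 μM.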
On the technique in general: In a reporter assay the amount or activity of a reporter protein is the signal.

Counter-ions that a name gives are not always drawn.

Take `COc1cc2nn(C)cc2cc1C(=O)Nc1cnc(N2CCN[C@@H](C)C2)cn1` [Compound 736, (S)-6-methoxy-2-methyl-N-(5-(3-methylpiperazin-1-yl)pyrazin-2-yl)-2H-indazole-5-carboxamide hydrochloride]: the IC50 is 1000 to 10000 nM.
Regarding `CCOc1cc2nn(C)cc2cc1C(=O)Nc1cnc(NCC2(C)CCNC2)nc1` (stereo not shown) [Compound 439], the activation at 5 µM was less than 50%.
Still for that read-out and setting: to `CCOc1cn2nc(C)cc2cc1C(=O)Nc1cnc(NCC2CNC(C)C2)nc1` (stereo not shown) [Compound 566] belongs less than 50%; to `CCNCC1CCN(c2ncc(NC(=O)c3cc4cc(C)nn4cc3OCC)cn2)CC1` [Compound 623], less than 50%.
Same read-out and setting: in the case of `CCOc1cn2nc(C)cc2cc1C(=O)Nc1cnc(N2CCC(CCNC)CC2)cn1` [Compound 527] it was less than 50%; in that of `CCOc1cn2nc(C)cc2cc1C(=O)Nc1cnc(N(C)CC2CCNC2)cn1` (stereo not shown) [Compound 538], 50 to 75%.
Turning to `CCOc1cc2nc(C)cn2cc1C(=O)Nc1ccc(N2C[C@@H](C)N[C@@H](C)C2)nn1` [Compound 282], the 50% inhibitory concentration (IC50) was less than 1000 nM.
Consider `CCOc1cn2nc(C)cc2cc1C(=O)Nc1cnc(N2CCN(CC3CCCNC3)CC2)cn1` (stereo not shown) [Compound 524], for which the activation at 5 µM is less than 50%.
With `CCOc1cn2nc(C)cc2cc1C(=O)Nc1cnc(N2CCCC(C)(CN)C2)nc1` (stereo not shown) [Compound 573], the activation at 5 µM was less than 50%.
In the case of `CCOc1cc2nc(C)cn2cc1C(=O)Nc1ccc(N2CCNC3(CC3)C2)nn1` [Compound 210, N-(6-4,7-diazaspiro[2.5]octan-7-ylpyridazin-3-yl)-7-ethoxy-2-methylimidazo[1,2-a]pyridine-6-carboxamide], the IC50 was less than 1000 nM.
Consider `COc1cc2nc(C)cn2cc1C(=O)Nc1ccc(N2CCCNC(CO)C2)cc1F` (stereo not shown) [Compound 141, N-(2-fluoro-4-(3-(hydroxymethyl)-1,4-diazepan-1-yl)phenyl)-7-methoxy-2-methylimidazo[1,2-a]pyridine-6-carboxamide], for which the activation at 5 µM was in the range of 50 to 75%.
Still for that read-out and setting: in the case of `CCOc1cc2nn(C)cc2cc1C(=O)Nc1cnc(NCC2CNCCOC2)cn1` (stereo not shown) [Compound 347] it was less than 50%.
Regarding `CCOc1cc2nn(C)cc2cc1C(=O)Nc1cnc(N(C)CC2CCCN2)nc1` (stereo not shown) [Compound 446], the activation at 5 µM was less than 50%.
The same measure, in the same setting: to `CCOc1cc2nn(C)cc2cc1C(=O)Nc1cnc(NCC(N)c2ccc(F)cc2)nc1` (stereo not shown) [Compound 419] belongs less than 50%; to `COc1cc2nn(C)cc2cc1C(=O)Nc1ccc(N2CC3CNCC3C2)cc1F` (stereo not shown) [Compound 117, N-(2-fluoro-4-(hexahydropyrrolo[3,4-c]pyrrol-2(1H)-yl)phenyl)-6-methoxy-2-methyl-2H-indazole-5-carboxamide], less than 50%.
Regarding `CCOc1cc2nc(C)cn2cc1C(=O)Nc1ccc(N2CC[C@@H]3NCCC[C@@H]3C2)nn1` (racemic) [Compound 241], the IC50 lay in the range of 1000 to 10000 nM.
Still for that read-out and setting: to `CCOc1cc2nc(C)cn2cc1C(=O)Nc1ccc(C2=CCNCC2)nn1` [Compound 709, 7-ethoxy-2-methyl-N-(6-(1,2,3,6-tetrahydropyridin-4-yl)pyridazin-3-yl)imidazo[1,2-a]pyridine-6-carboxamide hydrochloride] belongs less than 1000 nM.
In the case of `CCOc1cn2nc(C)cc2cc1C(=O)Nc1cnc(NC2COC3(CNC3)C2)cn1` (stereo not shown) [Compound 537], the activation at 5 µM was less than 50%.
Same read-out and setting: to `CCOc1cc2nc(C)cn2cc1C(=O)Nc1cnc(NCC2(F)CCNC2)cn1` (stereo not shown) [Compound 674] belongs 50 to 75%.
Consider `C[C@H]1CN(c2ccc(NC(=O)c3cc4cn(C)nc4cc3OC3CCC3)nn2)CCN1` [Compound 209, (S)-6-cyclobutoxy-2-methyl-N-(6-(3-methylpiperazin-1-yl)pyridazin-3-yl)-2H-indazole-5-carboxamide HCl Salt], for which the IC50 is less than 1000 nM.
As for `CCOc1cc2nn(C)cc2cc1C(=O)Nc1cnc(NCC[C@H]2CCNC2)cn1` [Compound 333], the activation at 5 µM was less than 50%.
Same read-out and setting: to `CCOc1cc2nn(C)cc2cc1C(=O)Nc1cnc(NC2CNCC23CC3)nc1` (stereo not shown) [Compound 397] belongs less than 50%; to `CCOc1cc2nc(C)cn2cc1C(=O)Nc1cnc(N2C3CCC2CNC3)cn1` [Compound 686], greater than 75%; to `CCOc1cc2nn(C)cc2cc1C(=O)Nc1cnc(NC[C@@H]2CCNC2)cn1` [Compound 364], 50 to 75%.
On the same count and under the same terms, in the case of `CCOc1cc2nn(C)cc2cc1C(=O)Nc1cnc(N2CCNCC3(CC3)C2)cn1` [Compound 305] it was greater than 75%.
In the case of `CCOc1cc2nc(C)cn2cc1C(=O)Nc1ccc(N2CC3(CC(NC(C)C)CO3)C2)nn1` (stereo not shown) [Compound 298], the IC50 fell in the range of 1000 to 10000 nM.
Same read-out and setting: in the case of `COc1cc2nc(C)cn2cc1C(=O)Nc1ccc(N2C[C@H]3CNCC[C@H]3C2)cc1F` [Compound 630] it was less than 1000 nM.
On the same count and under the same terms, to `COc1c(C(=O)Nc2ccc(N3CCNCC3)cc2F)cn2cc(C)nc2c1C` [Compound 127, N-(2-fluoro-4-(piperazin-1-yl)phenyl)-7-methoxy-2,8-dimethylimidazo[1,2-a]pyridine-6-carboxamide] belongs 1000 to 10000 nM.
As to `CCOc1cn2nc(C)cc2cc1C(=O)Nc1cnc(N(C)CC2CCCN2)nc1` (stereo not shown) [Compound 581], the activation at 5 µM was less than 50%.
The same measure, in the same setting: to `CCOc1cn2nc(C)cc2cc1C(=O)Nc1cnc(N2CCCC(C)(CN)C2)cn1` (stereo not shown) [Compound 522] belongs less than 50%.
Molecule `COc1cc2nc(C)cn2cc1C(=O)Nc1ccc(N2CCNC(C)CC2)cc1F` (stereo not shown) [Compound 160, N-(2-fluoro-4-(5-methyl-1,4-diazepan-1-yl)phenyl)-7-methoxy-2-methylimidazo[1,2-a]pyridine-6-carboxamide] gave an IC50 of less than 1000 nM.
As to `CCOc1cn2nc(C)cc2cc1C(=O)Nc1cnc(N2CCC(C3NCC3(C)C)CC2)nc1` (stereo not shown) [Compound 606], the activation at 5 µM is less than 50%.
On to `CCOc1cc2nc(C)cn2cc1C(=O)Nc1cnc(N2CCC3(CNCCO3)C2)cn1` (stereo not shown) [Compound 673], for which the activation at 5 µM was less than 50%.
In the case of `COc1cc2nc(C)cn2cc1C(=O)Nc1ccc(N2CCNCC2C(F)F)cc1F` (stereo not shown) [Compound 627], the IC50 was in the range of 1000 to 10000 nM.
As to `Cc1cn2cc(C(=O)Nc3ccc(N4CCN[C@H](C)C4)cc3F)ncc2n1` [Compound 105, (R)—N-(2-fluoro-4-(3-methylpiperazin-1-yl)phenyl)-2-methylimidazo[1,2-a]pyrazine-6-carboxamide hydrochloride], the activation at 5 µM was less than 50%.
As to `COc1cc2nn(C)cc2cc1C(=O)Nc1ccc(N2CCNCC2)cn1` [Compound 113, 6-methoxy-2-methyl-N-(5-(piperazin-1-yl)pyridin-2-yl)-2H-indazole-5-carboxamide HCl Salt], the IC50 was in the range of 1000 to 10000 nM.
Same read-out and setting: to `CCOc1cc2nc(C)cn2cc1C(=O)Nc1ccc(N2CCC3CCCC(C2)N3)nn1` (stereo not shown) [Compound 236] belongs 1000 to 10000 nM.
Consider `CCOc1cc2nc(C)cn2cc1C(=O)Nc1ccc(N2CC(NC)C2)nn1` [Compound 293], for which the IC50 fell in the range of 1000 to 10000 nM.
Same read-out and setting: in the case of `CCOc1cc2nc(C)cn2cc1C(=O)Nc1ccc(N2CCN(C3CCNC3)CC2)nn1` (stereo not shown) [Compound 274] it was 1000 to 10000 nM.
Consider `CCOc1cc2nc(C)cn2cc1C(=O)Nc1cnc(N2CCC(N)C2)cn1` (stereo not shown) [Compound 694], for which the activation at 5 µM was greater than 75%.
On the same count and under the same terms, to `CCOc1cc2nc(C)cn2cc1C(=O)Nc1cnc(NC2CNC(C)(C)C2)cn1` (stereo not shown) [Compound 663] belongs greater than 75%; to `COc1cc2nn(C)cc2cc1C(=O)Nc1ccc(N2CC3(CNC3)C2)cc1F` [Compound 116, N-(2-fluoro-4-(2,6-diazaspiro[3.3]heptan-2-yl)phenyl)-6-methoxy-2-methyl-2H-indazole-5-carboxamide TFA Salt], less than 50%; to `CCOc1cn2nc(C)cc2cc1C(=O)Nc1cnc(NC2CCCCC23CCNC3)cn1` (stereo not shown) [Compound 494], less than 50%.
Same read-out and setting: in the case of `CCOc1cn2nc(C)cc2cc1C(=O)Nc1cnc(N2CCNC(CC(F)(F)F)C2)cn1` (stereo not shown) [Compound 490] it was 50 to 75%; in that of `CCOc1cn2nc(C)cc2cc1C(=O)Nc1cnc(N2CC(NC)C(C)(C)C2)cn1` (stereo not shown) [Compound 503], greater than 75%.
On the same count and under the same terms, to `CCOc1cc2nc(C)cn2cc1C(=O)Nc1cnc(N2C[C@H]3CNC[C@H]3C2)nc1` [Compound 646] belongs 50 to 75%; to `CCOc1cc2nn(C)cc2cc1C(=O)Nc1cnc(NCCC2CCCNC2)nc1` (stereo not shown) [Compound 462], less than 50%.
As to `Cc1cn2cc(C(=O)Nc3ccc(N4CCN[C@@H](C)C4)nn3)c(OC3CCC3)cc2n1` [Compound 122, (S)-7-cyclobutoxy-2-methyl-N-(6-(3-methylpiperazin-1-yl)pyridazin-3-yl)imidazo[1,2-a]pyridine-6-carboxamide hydrochloride], the IC50 is less than 1000 nM.
For the molecule `CCOc1cc2nn(C)cc2cc1C(=O)Nc1cnc(N2CCNC(C(F)F)C2)nc1` (stereo not shown) [Compound 382], the activation at 5 µM was less than 50%.
`COc1cc2nc(C)cn2cc1C(=O)Nc1ccc(N2CCNCC2)cc1F` [Compound 111, N-(2-fluoro-4-(piperazin-1-yl)phenyl)-7-methoxy-2-methylimidazo [1,2-a]pyridine-6-carboxamide hydrogen chloride] displayed an IC50 of less than 1000 nM.
Consider `CCOc1cc2nn(C)cc2cc1C(=O)Nc1cnc(N2CC(N)CC2C)cn1` (stereo not shown) [Compound 321], for which the activation at 5 µM was greater than 75%.
On the same count and under the same terms, in the case of `CCOc1cc2nn(C)cc2cc1C(=O)Nc1cnc(NCc2cc3n(n2)CCNC3)nc1` [Compound 393] it was less than 50%; in that of `CCOc1cc2nn(C)cc2cc1C(=O)Nc1cnc(NCc2ccccc2N2CCNCC2)nc1` [Compound 451], less than 50%.
Consider `CCOc1cc2nc(C)cn2cc1C(=O)Nc1ccc(N(C)C2CCCNCC2)nn1` (stereo not shown) [Compound 250], for which the IC50 lay in the range of 1000 to 10000 nM.
On the same count and under the same terms, in the case of `CCOc1cc2nc(C)cn2cc1C(=O)Nc1ccc(N2CC[C@@H]3CNC[C@@H]3C2)nn1` (racemic) [Compound 246] it was 1000 to 10000 nM.
